Measurements published in patent US20090018111A1, “Novel Antimicrobial Medicament” (priority 2004, published 2009).

How the values were obtained:
M. catarrhalis ATCC8176 = experiment: Sensitivity test (agar dilution); type: cell-based, Moraxella catarrhalis
Protocol: (§1) The antibacterial activities were tested against various 18 bacteria (27 standard strains) which are representative bacteria caused clinically infectious disease (Staphylococcus aureus 3 strains, Staphylococcus epidermidis 1 strain, Micrococcus luteus 1 strain, Streptococcus pyogenes 1 strain, Enterococcus faecalis 1 strain, Enterococcus faecium 1 strain, Bacillus subtilis 1 strain, Escherichia coli 3 strains, Klebsiella pneumoniae 1 strain, Proteus mirabilis 1 strain, Proteus vulgaris 2 strains, Pseudomonas aeruginosa 3 strains, Serratia marcescens 2 strains, Enterobacter aerogenes 1 strain, Stenotrophomonas maltophilia 1 strain, Enterobacter cloacae 1 strain, Citrobacter freundii 1 strain, Moraxella catarrhalis 2 strains).
(§2) According to the standard method of Japan Chemotherapeutic Society (Chemotherapy, vol. […], p 76-79 (1981)) the test was carried out using the agar dilution method. After dissolving test samples in distilled water, agar medium containing the test samples was prepared in such a manner that the final concentration became twice serial dilution by pouring serially diluted combination drug solution or a single drug solution into agar medium. As agar medium was used Mueller Hinton Agar medium (MHA). Then, each strain was cultivated over night at 37° C. in an incubator and suspended in buffered saline solution with gelatin (BSG) in the concentration of about 10^6 CFU/ml. The suspension (about 5 μl) containing test strains was inoculated to the medium containing the test samples by Micro Planter.
(§3) When the sample is subjected to sensitivity test, this mixed solution was diluted by twice serial dilution method.
(§4) Furthermore, when the drug is solely used, each test sample was used as it is, and diluted by twice serial dilution method from the maximum concentration to the minimum concentration.
(§5) FIC index based on MIC value was calculated. […] Namely, when FIC index calculated by the following formula is equal or less than 1, the enhanced effect of the combination drug in said ratio is considered as positive. When FIC index is over 1, the enhanced effect of the combination drug in said ratio is considered as negative.
(§6) Formula of FIC index: FIC index=(MIC of Drug A in combination/MIC of Drug A alone)+(MIC of Drug B in combination/MIC of Drug B alone) N.C. in tables means being not calculated.

M. catarrhalis ATCC25238 = experiment: Sensitivity test (agar dilution); type: cell-based, Moraxella catarrhalis
Protocol: as §1, §2, §3, §4, §5, §6

B. subtilis ATCC6633 = experiment: Sensitivity test (agar dilution); type: cell-based, Bacillus subtilis
Protocol: as §1, §2, §3, §4, §5, §6

S. marcescens X 100 = experiment: Sensitivity test (agar dilution); type: cell-based, Serratia marcescens
Protocol: as §1, §2, §3, §4, §5, §6

S. marcescens GN6473 = experiment: Sensitivity test (agar dilution); type: cell-based, Serratia marcescens
Protocol: as §1, §2, §3, §4, §5, §6

E. faecalis ATCC19433 = experiment: Sensitivity test (agar dilution); type: cell-based, Enterococcus faecalis
Protocol: as §1, §2, §3, §4, §5, §6

S. epidermidis IAM1296 = experiment: Sensitivity test (agar dilution); type: cell-based, Staphylococcus epidermidis
Protocol: as §1, §2, §3, §4, §5, §6

[1] = system: 18 bacteria (27 standard strains); experiment: Sensitivity test, combination effect over the standard strains; type: cell-based; conditions: in combination with compound 1, standard strains
Protocol: as §1, §2, §3, §5, §6

K. pneumoniae ATCC10031 = experiment: Sensitivity test (agar dilution); type: cell-based, Klebsiella pneumoniae
Protocol: as §1, §2, §3, §4, §5, §6

E. faecium ATCC19434 = experiment: Sensitivity test (agar dilution); type: cell-based, Enterococcus faecium
Protocol: as §1, §2, §3, §4, §5, §6

E. aerogenes ATCC13048 = experiment: Sensitivity test (agar dilution); type: cell-based, Enterobacter aerogenes
Protocol: as §1, §2, §3, §4, §5, §6

E. coli NIHJ JC-2 = experiment: Sensitivity test (agar dilution); type: cell-based, Escherichia coli
Protocol: as §1, §2, §3, §4, §5, §6

E. coli ML1410 = experiment: Sensitivity test (agar dilution); type: cell-based, Escherichia coli; conditions: alone
Protocol: as §1, §2, §3, §4, §5, §6

Str. pyogenes Cook = experiment: Sensitivity test (agar dilution); type: cell-based, Streptococcus pyogenes
Protocol: as §1, §2, §3, §4, §5, §6

M. luteus ATCC9341 = experiment: Sensitivity test (agar dilution); type: cell-based, Micrococcus luteus
Protocol: as §1, §2, §3, §4, §5, §6

C. freundii GN346 = experiment: Sensitivity test (agar dilution); type: cell-based, Citrobacter freundii
Protocol: as §1, §2, §3, §4, §5, §6

E. cloacae GN7471 = experiment: Sensitivity test (agar dilution); type: cell-based, Enterobacter cloacae
Protocol: as §1, §2, §3, §4, §5, §6

P. vurgalis OX-19 = experiment: Sensitivity test (agar dilution); type: cell-based, Proteus vulgaris
Protocol: as §1, §2, §3, §4, §5, §6

P. vulgaris GN7919 = experiment: Sensitivity test (agar dilution); type: cell-based, Proteus vulgaris
Protocol: as §1, §2, §3, §4, §5, §6

S. maltophilia IID1275 = experiment: Sensitivity test (agar dilution); type: cell-based, Stenotrophomonas maltophilia
Protocol: as §1, §2, §3, §4, §5, §6

E. coli ML1410 RP4 = experiment: microbe, parasite or virus in culture; type: cell-based, Escherichia coli; conditions: alone
Protocol: as §1, §2, §3, §4, §5, §6

[2] = system: S. aureus SP-7928 (homo-MRSA); experiment: Sensitivity test (agar dilution); type: cell-based, Staphylococcus aureus
Protocol: as §1, §2, §3, §4, §5, §6

[3] = system: S. aureus MS94088 (hetero-MRSA); experiment: Sensitivity test (agar dilution); type: cell-based, Staphylococcus aureus
Protocol: as §1, §2, §3, §4, §5, §6

S. aureus 209P = experiment: Sensitivity test (agar dilution); type: cell-based, Staphylococcus aureus
Protocol: as §1, §2, §3, §4, §5, §6

P. aeruginosa TL-2666 = experiment: Sensitivity test (agar dilution); type: cell-based, Pseudomonas aeruginosa
Protocol: as §1, §2, §3, §4, §5, §6

P. aeruginosa TL-2667 = experiment: Sensitivity test (agar dilution); type: cell-based, Pseudomonas aeruginosa
Protocol: as §1, §2, §3, §4, §5, §6

P. aeruginosa IFO3451 = experiment: Sensitivity test (agar dilution); type: cell-based, Pseudomonas aeruginosa
Protocol: as §1, §2, §3, §4, §5, §6

P. mirabiris GN2425 = experiment: Sensitivity test (agar dilution); type: cell-based, Proteus mirabilis
Protocol: as §1, §2, §3, §4, §5, §6

SMILES: C[C@@H](O)[C@H]1C(=O)N2C(C(=O)O)=C(SCCN=CN)C[C@H]12 [IPM, imipenem]
- MIC (M. catarrhalis ATCC8176; Concomitant (IPM:SM = 1:1)): ≦0.002 μg/ml
- MIC (M. catarrhalis ATCC8176; alone): 0.008 µg/mL
- MIC (M. catarrhalis ATCC25238; Concomitant (IPM:SM = 1:1)): ≦0.002 μg/ml
- MIC (M. catarrhalis ATCC25238; alone): 0.008 µg/mL
- MIC (B. subtilis ATCC6633; Concomitant (IPM:SM = 1:1)): ≦0.002 μg/ml
- MIC (B. subtilis ATCC6633; alone): 0.016 µg/mL
- MIC (S. marcescens X 100; Concomitant (IPM:SM = 1:1)): 0.125 µg/mL
- MIC (S. marcescens X 100; alone): 0.25 µg/mL
- MIC (S. marcescens GN6473; Concomitant (IPM:SM = 1:1)): 0.25 µg/mL
- MIC (S. marcescens GN6473; alone): 0.25 µg/mL
- MIC (E. faecalis ATCC19433; Concomitant (IPM:SM = 1:1)): 0.5 µg/mL
- MIC (E. faecalis ATCC19433; alone): 1 µg/mL
- MIC (S. epidermidis IAM1296; Concomitant (IPM:SM = 1:1)): 0.016 µg/mL
- MIC (S. epidermidis IAM1296; alone): 0.25 µg/mL
- combination effect [1]: the combination effect was recognized
- MIC (K. pneumoniae ATCC10031; Concomitant (IPM:SM = 1:1)): 0.031 µg/mL
- MIC (K. pneumoniae ATCC10031; alone): 0.125 µg/mL
- MIC (E. faecium ATCC19434; Concomitant (IPM:SM = 1:1)): 0.125 µg/mL
- MIC (E. faecium ATCC19434; alone): 4 µg/mL
- MIC (E. aerogenes ATCC13048; Concomitant (IPM:SM = 1:1)): 0.125 µg/mL
- MIC (E. aerogenes ATCC13048; alone): 0.25 µg/mL
- MIC (E. coli NIHJ JC-2; Concomitant (IPM:SM = 1:1)): 0.063 µg/mL
- MIC (E. coli NIHJ JC-2; alone): 0.125 µg/mL
- MIC (E. coli ML1410): 0.25 µg/mL
- MIC (Str. pyogenes Cook; Concomitant (IPM:SM = 1:1)): ≦0.002 μg/ml
- MIC (Str. pyogenes Cook; alone): ≦0.002 μg/ml
- MIC (M. luteus ATCC9341; Concomitant (IPM:SM = 1:1)): 0.004 µg/mL
- MIC (M. luteus ATCC9341; alone): 0.024 µg/mL
- MIC (C. freundii GN346; Concomitant (IPM:SM = 1:1)): 0.25 µg/mL
- MIC (C. freundii GN346; alone): 0.5 µg/mL
- MIC (E. cloacae GN7471; Concomitant (IPM:SM = 1:1)): 0.125 µg/mL
- MIC (E. cloacae GN7471; alone): 0.125 µg/mL
- MIC (P. vurgalis OX-19; Concomitant (IPM:SM = 1:1)): 0.063 µg/mL
- MIC (P. vurgalis OX-19; alone): 1 µg/mL
- MIC (P. vulgaris GN7919; Concomitant (IPM:SM = 1:1)): 0.5 µg/mL
- MIC (P. vulgaris GN7919; alone): 1 µg/mL
- MIC (S. maltophilia IID1275; Concomitant (IPM:SM = 1:1)): >32 µg/mL
- MIC (S. maltophilia IID1275; alone): >32 µg/mL
- MIC (E. coli ML1410 RP4): 0.5 µg/mL
- MIC ([2]; Concomitant (IPM:SM = 1:1)): 2 µg/mL
- MIC ([2]; alone): >32 µg/mL
- MIC ([3]; Concomitant (IPM:SM = 1:1)): 0.25 µg/mL
- MIC ([3]; alone): 0.125 µg/mL
- MIC (S. aureus 209P; Concomitant (IPM:SM = 1:1)): 0.004 µg/mL
- MIC (S. aureus 209P; alone): 0.008 µg/mL
- MIC (P. aeruginosa TL-2666; Concomitant (IPM:SM = 1:1)): 1 µg/mL
- MIC (P. aeruginosa TL-2666; alone): 2 µg/mL
- MIC (P. aeruginosa TL-2667; Concomitant (IPM:SM = 1:1)): 8 µg/mL
- MIC (P. aeruginosa TL-2667; alone): 8 µg/mL
- MIC (P. aeruginosa IFO3451; Concomitant (IPM:SM = 1:1)): 0.5 µg/mL
- MIC (P. aeruginosa IFO3451; alone): 1 µg/mL
- MIC (P. mirabiris GN2425; Concomitant (IPM:SM = 1:1)): 0.25 µg/mL
- MIC (P. mirabiris GN2425; alone): 1 µg/mL
